# Results taken from PubChem BioAssay (NCI).
#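 Interpolation was linear, between the two tested concentrations surrounding the appropriate level; five concentrations were tested over 48 hours in 96-well plates. TGI is the concentration that stops growth completely.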
# Assays:
# Test in all cases: NCI tumour cell line growth inhibition, 48 h
# [1] = system: ACHN renal
# [2] = system: SR leukemia
# [3] = system: OVCAR-4 ovarian
# [4] = system: NCI/ADR-RES ovarian
# [5] = system: HOP-92 NSCLC
# [6] = system: SK-OV-3 ovarian
# [7] = system: HOP-62 NSCLC
# [8] = system: HT29 colon
# [9] = system: HS 578T breast
# [10] = system: HCT-116 colon
# [11] = system: OVCAR-5 ovarian
# [12] = system: SK-MEL-5 melanoma
# [13] = system: MDA-MB-231 breast
# [14] = system: PC-3 prostate
# [15] = system: IGROV1 ovarian
# [16] = system: HCC-2998 colon
# [17] = system: A498 renal
# [18] = system: EKVX NSCLC
# [19] = system: U251 CNS
# [20] = system: NCI-H522 lung
# [21] = system: KM12 colon
# [22] = system: SF-539 CNS
# [23] = system: SN12C renal
# [24] = system: TK-10 renal
# [25] = system: RXF 393 renal
# [26] = system: MDA-N
# [27] = system: NCI-H226 lung
# [28] = system: COLO 205 colon
# [29] = system: UO-31 renal
# [30] = system: HCT-15 colon
# [31] = system: NCI-H23 lung
# [32] = system: M14 melanoma
# [33] = system: RPMI-8226 leukemia
# [34] = system: SNB-19 CNS
# [35] = system: OVCAR-3 ovarian
# [36] = system: CAKI-1 renal
# [37] = system: SNB-75 CNS
# [38] = system: SK-MEL-2 melanoma
# [39] = system: T-47D breast
# [40] = system: DU-145 prostate
# [41] = system: SF-295 CNS
# [42] = system: BT-549 breast
# [43] = system: UACC-257 melanoma
# [44] = system: MDA-MB-435
# [45] = system: K-562 leukemia
# [46] = system: SF-268 CNS
# [47] = system: SW-620 colon
# [48] = system: A549 NSCLC
# [49] = system: UACC-62 melanoma
# [50] = system: MCF7 breast
# [51] = system: OVCAR-8 ovarian
# [52] = system: SK-MEL-28 melanoma
# [53] = system: LOX IMVI melanoma
# [54] = system: 786-0 renal
# [55] = system: MALME-3M melanoma
# [56] = system: NCI-H460 lung
# [57] = system: MOLT-4 leukemia
# [58] = system: CCRF-CEM leukemia
smiles,measurement,setting,value
O=C(O)CCc1nc(-c2ccccc2-n2cccc2)no1,TGI,[1],> 100 µM
same,TGI,[2],> 100 µM
same,TGI,[3],> 100 µM
same,TGI,[4],> 100 µM
same,TGI,[5],> 100 µM
same,TGI,[6],> 100 µM
same,TGI,[7],> 100 µM
same,TGI,[8],> 100 µM
same,TGI,[9],> 100 µM
same,TGI,[10],> 100 µM
same,TGI,[11],> 100 µM
same,TGI,[12],> 100 µM
same,TGI,[13],> 100 µM
same,TGI,[14],> 100 µM
same,TGI,[15],> 100 µM
same,TGI,[16],> 100 µM
same,TGI,[17],> 100 µM
same,TGI,[18],> 100 µM
same,TGI,[19],> 100 µM
same,TGI,[20],> 100 µM
same,TGI,[21],> 100 µM
same,TGI,[22],> 100 µM
same,TGI,[23],> 100 µM
same,TGI,[24],> 100 µM
same,TGI,[25],> 100 µM
same,TGI,[26],> 100 µM
same,TGI,[27],> 100 µM
same,TGI,[28],> 100 µM
same,TGI,[29],> 100 µM
same,TGI,[30],> 100 µM
same,TGI,[31],> 100 µM
same,TGI,[32],> 100 µM
same,TGI,[33],> 100 µM
same,TGI,[34],> 100 µM
same,TGI,[35],86.3 µM
same,TGI,[36],> 100 µM
same,TGI,[37],> 100 µM
same,TGI,[38],> 100 µM
same,TGI,[39],> 100 µM
same,TGI,[40],> 100 µM
same,TGI,[41],> 100 µM
same,TGI,[42],> 100 µM
same,TGI,[43],> 100 µM
same,TGI,[44],46.3 µM
same,TGI,[45],> 100 µM
same,TGI,[46],> 100 µM
same,TGI,[47],> 100 µM
same,TGI,[48],> 100 µM
same,TGI,[49],> 100 µM
same,TGI,[50],> 100 µM
same,TGI,[51],> 100 µM
same,TGI,[52],> 100 µM
same,TGI,[53],> 100 µM
same,TGI,[54],> 100 µM
same,TGI,[55],> 100 µM
same,TGI,[56],> 100 µM
O=C1C(c2c(O)[nH]c3ccc(S(=O)(=O)NCCO)cc23)=Nc2ccccc21,TGI,[1],> 100 µM
same,TGI,[2],21.6 µM
same,TGI,[3],14.5 µM
same,TGI,[4],> 100 µM
same,TGI,[5],82.4 µM
same,TGI,[6],20.3 µM
same,TGI,[7],> 100 µM
same,TGI,[57],36.6 µM
same,TGI,[8],> 100 µM
same,TGI,[9],> 100 µM
same,TGI,[10],16.2 µM
same,TGI,[11],> 100 µM
same,TGI,[12],> 100 µM
same,TGI,[13],31.6 µM
same,TGI,[14],54.3 µM
same,TGI,[15],> 100 µM
same,TGI,[16],> 100 µM
same,TGI,[17],9.07 µM
same,TGI,[58],> 100 µM
same,TGI,[18],> 100 µM
same,TGI,[19],12.9 µM
same,TGI,[20],4.73 µM
same,TGI,[21],2.2 µM
same,TGI,[23],> 100 µM
same,TGI,[24],42.4 µM
same,TGI,[25],18.9 µM
same,TGI,[26],> 100 µM
same,TGI,[27],> 100 µM
same,TGI,[28],> 100 µM
same,TGI,[29],> 100 µM
same,TGI,[30],> 100 µM
same,TGI,[31],> 100 µM
same,TGI,[32],> 100 µM
same,TGI,[33],> 100 µM
same,TGI,[34],> 100 µM
same,TGI,[35],18.3 µM
same,TGI,[36],> 100 µM
same,TGI,[37],7.43 µM
same,TGI,[38],17.9 µM
same,TGI,[39],50.4 µM
same,TGI,[40],46.8 µM
same,TGI,[41],> 100 µM
same,TGI,[42],18.7 µM
same,TGI,[43],> 100 µM
same,TGI,[44],> 100 µM
same,TGI,[45],69.4 µM
same,TGI,[46],51 µM
same,TGI,[47],> 100 µM
same,TGI,[48],> 100 µM
same,TGI,[49],> 100 µM
same,TGI,[50],6.53 µM
same,TGI,[51],> 100 µM
same,TGI,[52],> 100 µM
same,TGI,[53],> 100 µM
same,TGI,[54],28.9 µM
same,TGI,[55],> 100 µM
same,TGI,[56],> 100 µM
